Reference: PubChem BioAssay AID720547 (The Scripps Research Institute Molecular Screening Center, 2013)
Calls of active or inactive are those of the source.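 Rule for the calls: active = compound flagged as a likely artifact in this counterscreen, with IC50 of 10 µM or lower; inactive = IC50 above 10 µM.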

System: HEK293 Gal4-VP16 luciferase reporter counterscreen, luminescence
Experiment: Gal4-VP16 luciferase reporter inhibitors, dose response, counter-screen for COUP-TFII inhibitor project, cell-based, luminescence, HEK293 (AID 720547);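 note: potency for lowering the luciferase signal driven by Gal4-VP16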

Row | Compound | IC50
1 | CCSc1nc2ccccc2n1C(=O)/C=C/c1ccc(OC)c(OC)c1 | 19.4 µM (inactive)
2 | CCCCCCn1ccc(=N)cc1 | > 85.4 µM (inactive)
3 | Oc1ccc(-c2n[nH]c(C(F)(F)F)c2-c2ccccc2)c(O)c1 | > 85.4 µM (inactive)
4 | COc1ccccc1-c1cc2nc(-c3ccccc3)cc(N3CCN(C(=O)c4ccco4)CC3)n2n1 | 10.3 µM (inactive)
5 | Cc1oc(-c2ccc(Cl)cc2)nc1CS(=O)CC(=O)NCCCN1CCN(Cc2ccccc2)CC1 (stereo unspecified) | > 28.5 µM (inactive)
6 | Oc1ccc(Oc2ccc3c(C(F)(F)F)cc(C(F)(F)F)nc3n2)cc1 | 37 µM (inactive)
7 | CCc1ccc(CN(C)C(=O)c2cc(COc3cccc4cnccc34)on2)cc1 | > 85.4 µM (inactive)
8 | CCN1/C(=C\c2ccc3ccccc3[n+]2CC)Sc2cc(C)ccc21 | 53.9 µM (inactive)
9 | Cc1cc(/C=C2/SC(=S)N(c3cccc(Cl)c3)C2=O)c(C)n1-c1cccnc1 | > 85.4 µM (inactive)
10 | CC(=O)Nc1ccc(SCC(=O)c2cc(C)n(Cc3cccs3)c2C)cc1 | > 85.4 µM (inactive)
11 | Cc1ccnc(Nc2nc(-c3sc(C)nc3C)cs2)c1 | > 85.3 µM (inactive)
12 | NC(=O)[C@H]1CC2(CC(c3cccc(NC(=O)COc4ccc(Cl)cc4)c3)=NO2)CN1C(=O)Cc1ccc([N+](=O)[O-])cc1 (stereo partly specified) | > 85.5 µM (inactive)
13 | CCN1/C(=C/c2ccc3cc(C)ccc3[n+]2CC)Sc2ccccc21 | 22 µM (inactive)
14 | CC(=O)N[C@@H](C)c1nc2ccccc2n1CCCN1CCN(c2nc(-c3ccc(C)cc3)cs2)CC1 | 57 µM (inactive)
15 | CCOC(=O)N1CCC(Nc2ncnc3c2cnn3-c2ccc(C)cc2C)CC1 | > 85.4 µM (inactive)
16 | O=C(CSc1nnc(-c2cccnc2)s1)Nc1ccnc2ccccc12 | > 85.4 µM (inactive)
17 | Cc1cc(C)c(S(=O)(=O)NCc2ccncc2)c(C)c1 | > 85.4 µM (inactive)
18 | N=c1ccn(CC(=O)c2ccc(-c3ccccc3)cc2)cc1 | > 85.4 µM (inactive)
19 | Cc1cc(C(=O)NC2CCCc3c2cnn3-c2cccc(C)c2C)n(C)n1 (stereo unspecified) | > 85.4 µM (inactive)
20 | COc1ccc(OC)c(CCNC(=O)Cn2nc(C)c3c(C)n(-c4ccc(C)cc4)nc3c2=O)c1 | > 28.5 µM (inactive)
21 | CC(C)CNc1ncnc2c1ncn2[C@H]1CN(Cc2ccc(-c3ccccc3)cc2)C[C@@H](CO)O1 | 61.9 µM (inactive)
22 | CC(=O)c1cccc(NS(=O)(=O)c2ccc(-c3cnc(C4CC4)o3)cc2)c1 | > 85.4 µM (inactive)
23 | Cc1ccc(-n2nc3c(=O)n(C(C)C(=O)NCCC4=CCCCC4)nc(C)c3c2C)cc1 (stereo unspecified) | > 28.5 µM (inactive)

Row | Compound | IC50
24 | CCN(CC)S(=O)(=O)c1cccc(NC(=O)CNc2cccc(S(=O)(=O)N3CCCC3)c2)c1 | > 85.4 µM (inactive)
25 | CCN=c1scc(-c2ccc3c(c2)NC(=O)CO3)n1N=C1CCCC1 | > 85.4 µM (inactive)
26 | Cc1ccc(-c2cc3cccc[n+]3cc2-c2ccc(C)cc2)cc1 | > 28.5 µM (inactive)
27 | COc1ccc(CCNc2ncnc3sccc23)cc1OC | > 85.4 µM (inactive)
28 | C[C@H]1C[C@@H](C)C(=O)[C@@H]([C@H](O)CC2CC(=O)NC(=O)C2)C1 | > 85.4 µM (inactive)
29 | Cn1nc(CC(=O)Nc2ccc(N3CCN(C(=O)OC(C)(C)C)CC3)cc2)c2ccccc2c1=O | 81.2 µM (inactive)
30 | O=C(NCCc1cn2ccccc2n1)c1cc(COc2ccc3ncccc3c2)on1 | 31.1 µM (inactive)
31 | Cc1ccccc1Cn1c(C)nc2ccccc21 | > 85.4 µM (inactive)
32 | CCN(CC)S(=O)(=O)c1cccc(NC(=O)COC(=O)c2[nH]c(C)c(C(C)=O)c2C)c1 | > 28.5 µM (inactive)
33 | CC(=O)c1cn(CCOc2ccccc2C)c2ccccc12 | > 85.4 µM (inactive)
34 | Cc1sc2ncnc(NCC3COc4ccccc4O3)c2c1C (stereo unspecified) | > 85.4 µM (inactive)
35 | NC(=S)NN=C1c2cc(OCCN3CCOCC3)ccc2-c2ccc(OCCN3CCOCC3)cc21 | 12 µM (inactive)
36 | O=C(CSc1nnnn1C1CC2CCC1C2)Nc1ccnc2ccccc12 (stereo unspecified) | > 85.4 µM (inactive)
37 | O=C(CSc1cc(Cl)ccc1Cl)N/N=C/c1ccc[nH]1 | > 85.4 µM (inactive)
38 | COc1ccc(CCNc2ncnc3c2oc2ccccc23)cc1OC | 56.8 µM (inactive)
39 | Cc1ccc(-c2cn(-c3ccccc3)c3[n+]2CCCS3)cc1 | > 85.4 µM (inactive)
40 | OC[C@@H]1CN(Cc2ccc(-c3ccccc3)cc2)C[C@H](n2cnc3c(NCc4ccncc4)ncnc32)O1 | 59.3 µM (inactive)
41 | Cn1nccc1C(=O)NC1CCCc2c1cnn2-c1ccccc1F (stereo unspecified) | > 85.4 µM (inactive)
42 | Cc1cccc(Nc2nc(-c3c(C)nc4ccccn34)cs2)c1 | 66.3 µM (inactive)
43 | CC[n+]1c(C=C2C=C(C)OC(C)=C2)sc2ccccc21 | > 85.4 µM (inactive)
44 | Cc1cc(C(=O)NC2CCCc3c2cnn3-c2ccc(C)c(C)c2)n(C)n1 (stereo unspecified) | > 85.4 µM (inactive)
45 | CCCCCCn1c(NCC)nc2c1c(=O)n(C)c(=O)n2C | > 85.4 µM (inactive)
46 | O=c1c2ccccc2oc2cc(C#CC3(O)CCCCC3)ccc12 | 56.2 µM (inactive)

Row | Compound | IC50
47 | Cc1cccc(Nc2nc(NCc3ccco3)c3ccccc3n2)c1 | 53 µM (inactive)
48 | O=C(NC(Nc1nc2ccc([N+](=O)[O-])cc2s1)(C(F)(F)F)C(F)(F)F)c1cccnc1 | > 85.4 µM (inactive)
49 | Cc1ccc(-n2nc3c(=O)n(C(C)C(=O)NCc4ccccc4Cl)nc(C)c3c2C)cc1 (stereo unspecified) | 81.8 µM (inactive)
50 | CC(C)(C)c1ccc(C2CC2C(=O)N/N=C\c2ccc[nH]2)cc1 (stereo unspecified) | > 85.4 µM (inactive)
51 | O=C(NC1CCCCCCC1)c1cc(COc2ccc3ncccc3c2)on1 | > 85.4 µM (inactive)
52 | CN(C)c1cc[n+](CC(=O)c2ccc(-c3ccccc3)cc2)cc1 | > 85.4 µM (inactive)
53 | CCOc1ccc(-n2c(-c3ccccc3)c[n+]3c2CCCCC3)cc1 | > 85.4 µM (inactive)
54 | CCCCn1c2c(c(=N)c3c1CCC3)CCC2 | > 85.4 µM (inactive)
55 | Cc1nnsc1NC(=O)OCc1ccc(C(C)(C)C)cc1 | > 85.4 µM (inactive)
56 | COc1ccc(/C=N/OCC(=O)NC(c2ccccc2)c2ccccc2)cc1OC | > 85.4 µM (inactive)
57 | OC[C@@H]1CN(Cc2ccc(-c3ccccc3)cc2)C[C@H](n2cnc3c(NC4CCC4)ncnc32)O1 | 64.1 µM (inactive)
58 | CCOC(=O)C1CCCN(S(=O)(=O)c2ccc(S(=O)(=O)N(CC)CC)cc2)C1 (stereo unspecified) | > 85.4 µM (inactive)
59 | Cc1c(/C(O)=C2/C(=O)C(=O)N(CCN3CCOCC3)C2c2ccco2)cnn1-c1ccccc1 (stereo unspecified) | 21.3 µM (inactive)
60 | CCC(O)C1CCN(C(=O)c2cc(COc3ccc4ncccc4c3)on2)CC1 (stereo unspecified) | > 85.4 µM (inactive)
61 | CC1(C)CC(=O)C=C(c2ccc(-c3cnc4ccccc4c3)cc2)C1=O | 12.5 µM (inactive)
62 | COc1ccc(C(=O)C2CCN(c3ncnc4sccc34)CC2)cc1 | > 28.4 µM (inactive)
63 | Cc1cc(C)c(CN2CCN(C(=O)Cn3cnc4c(OCc5ccccc5)ncnc43)CC2)c(C)c1 | > 85.3 µM (inactive)
64 | COc1ccccc1-[n+]1c(C)cc(/C=C2\Sc3ccccc3N2C)cc1C | 27.8 µM (inactive)
65 | COc1ccc(Cl)cc1Nc1nc(-c2sc(NC(=O)C(C)(C)C)nc2C)cs1 | > 85.4 µM (inactive)
66 | COc1ccc(-c2csc(NC(=O)C3CCN(c4ncnc5sc(C)c(C)c45)CC3)n2)cc1OC | 25.7 µM (inactive)
67 | CC(C)(C)c1ccc(/C=N/Nc2ccc(C(=O)O)cc2)cc1 | > 85.4 µM (inactive)
68 | Cc1c(C)n(Cc2ccccc2)c2ncnc(Cl)c12 | > 85.4 µM (inactive)
69 | COc1cccc(CN(C)C(=O)c2ccc(OCC(=O)Nc3cccc(C(F)(F)F)c3)c(OC)c2)c1 | > 28.5 µM (inactive)

Row | Compound | IC50
70 | CCOc1ccc(S(=O)(=O)NCc2ccncc2)cc1 | > 85.4 µM (inactive)
71 | CC(C)(C)OC(=O)NCCCCCc1cn([C@@H](CO)C(=O)NCCCCCCCCCCC(=O)N2CCN(C(=O)OC(C)(C)C)CC2)nn1 | 13.3 µM (inactive)
72 | Cc1ccc(Cn2ncc3c(N4CCN(Cc5ccc(Cl)cc5)CC4)ncnc32)cc1 | > 85.4 µM (inactive)
73 | O=C(c1ccccc1)C1CCN(c2ncnc3sccc23)CC1 | > 85.5 µM (inactive)
74 | Cc1cc(S(=O)(=O)NCc2ccncc2)c(C)cc1Br | > 85.4 µM (inactive)
75 | CCOC(=O)c1cnc(-n2nc(C)cc2C)nc1NC1CCCCC1 | 45.4 µM (inactive)
76 | Fc1ccc(NC(=S)N2CCCN(c3ccc(C(F)(F)F)cn3)CC2)c(F)c1 | > 85.4 µM (inactive)
77 | CC1C(OC(=O)CCC(=O)NC(C)(C)CO)O[C@H]2OC3(C)CC[C@H]4[C@H](C)CCC1C24OO3 (stereo partly specified) | > 85.4 µM (inactive)
78 | NC(=O)c1c(-c2ccc(Cl)cc2Cl)csc1NC(=O)Cc1ccccc1 | > 85.4 µM (inactive)
79 | COC(=O)c1ccc2nc(Nc3nc4ccc(F)cc4s3)sc2c1 | > 85.4 µM (inactive)
80 | Nc1nc2ccccc2cc1C(=O)NCc1ccc(-c2ccccc2)cc1 | > 85.3 µM (inactive)
81 | Cc1ccc(-c2csc(NC(=O)C3CCN(S(=O)(=O)c4cccs4)CC3)n2)cc1 | > 85.4 µM (inactive)
82 | CCN(CC)S(=O)(=O)c1ccc(/C=C/C(=O)Nc2ccc(Br)cc2F)cc1 | > 85.4 µM (inactive)
83 | Fc1ccc(-n2nnnc2-c2cnc(-c3cccs3)nc2C(F)(F)F)cc1 | 33.4 µM (inactive)
84 | CC(=O)c1c(C)[nH]c(C(=O)OCCCCN2C(=O)c3ccccc3C2=O)c1C | 63.7 µM (inactive)
85 | Cn1nccc1C(=O)NC1CCCc2c1cnn2-c1ccc(C(C)(C)C)cc1 (stereo unspecified) | > 85.4 µM (inactive)
86 | COC(=O)C1=C(c2ccc(-c3ccccc3)c(F)c2)C[C@@H]2CC[C@H]1N2C(=O)N1CCCC1 | > 85.4 µM (inactive)
87 | CSc1ccccc1OCc1cc(C(=O)N2CCC(c3ccncc3)CC2)no1 | > 85.4 µM (inactive)
88 | O=C(NCC(c1ccco1)N1CCCC1)c1ccc(Cl)c(S(=O)(=O)N2CCc3ccccc32)c1 (stereo unspecified) | > 28.5 µM (inactive)
89 | Cn1nc(C(C)(C)C)cc1C(=O)NCc1cc(F)cc2c1OCOC2 | > 85.4 µM (inactive)
90 | N#CCSc1nnc(-c2sc3ccccc3c2Cl)o1 | 85.9 µM (inactive)
91 | Cc1cc2c(=Cc3ccc(N(C)C)cc3)c3ccccc3n2[n+]1C | 36.5 µM (inactive)
